According to US20040242525A1, “Method for promoting gonadal growth in an animal” (Nagoya University, priority 2003, published 2004):
Entries after “also recorded” stand apart in the source; their conditions may differ.

Assays:
[1] = system: Japanese quail testis (gonadal growth); assay: IOP infusion, testicular growth under long-day condition; format: in vivo, Japanese quail (Coturnix coturnix japonica); conditions: long-day condition (p<0.05)
Protocol: (§1) To assess directly whether T3 mediates photoperiodic response of gonads, the inventors studied the effect of intracerebroventricular (i.c.v.) infusion of T3 on gonadal growth. Vehicle and several doses of T3 and T4 were infused to third ventricle by osmotic mini pump and testicular size was measured before and after the infusion. […] Therefore, the inventors furthermore examined the effect of IOP infusion under long-day condition (FIG. 10b).

[2] = system: Japanese quail gonadotropin release and gonadal growth; conditions: cited from earlier work; for photoperiodically induced gonadotropin secretion and gonadal growth: peripheral injection of pharmacological dose
[3] = system: Japanese quail testis (gonadal growth); assay: intracerebroventricular infusion by osmotic mini pump, testicular growth under short-day condition; format: in vivo, Japanese quail (Coturnix coturnix japonica); conditions: for testicular growth: i.c.v. infusion to third ventricle, several doses, short-day condition (light 8 hrs, dark 16 hrs), male Japanese quail
Protocol: as §1

[4] = cited from earlier work

CCC(Cc1c(I)cc(I)c(N)c1I)C(=O)O (stereo not shown) [IOP, lopanoic acid]
testicular growth [1]: can reduce testicular growth; also recorded: reduces testicular growth

N[C@@H](Cc1cc(I)c(Oc2ccc(O)c(I)c2)c(I)c1)C(=O)O [T3, 3,5,3′-triiodothyronine]
photoperiodically induced gonadotropin secretion and gonadal growth [2]: can mimic
testicular growth [3]: mimics testicular growth with dose dependent manner
testicular growth at the largest dose ([3]; i.c.v. infusion, largest dose, short-day condition): testicular growth was not observed
dose giving the greatest effect ([3]; intracerebroventricular administration to Japanese quail): 0.3 ng per day

N[C@@H](Cc1cc(I)c(Oc2cc(I)c(O)c(I)c2)c(I)c1)C(=O)O [T4, Thyroxine]
photoperiodically induced gonadotropin secretion and gonadal growth [2]: can mimic
relative effectiveness to mimic gonadotropin release ([2]; peripheral injection): more effective than T3
testicular growth [3]: little effect
fraction of T4 converted to T3 in the blood [4]: about ⅓
fraction of T4 converted to reverse T3 (RT3) in the blood [4]: ~45%
